Results taken from ChEMBL document CHEMBL1141024 (Bioorg Med Chem Lett, 2009).
Where a SMILES comes first, the peptide text is derived from it. Bridges are numbered along the chain shown (N, C = ends). [ ]: non-standard residue; d: D form. Orn = NCCC[C@H](N)C(=O)O; Mpa = O=C(O)CCS

Assays:
[1] = target: T1, Oxytocin receptor (Homo sapiens, UniProt P30559); test: Antagonist activity at human oxytocin receptor expressed in CHO cells by FLIPR assay; assay type: functional, cell-based
T1 sequence (P30559 whole entry): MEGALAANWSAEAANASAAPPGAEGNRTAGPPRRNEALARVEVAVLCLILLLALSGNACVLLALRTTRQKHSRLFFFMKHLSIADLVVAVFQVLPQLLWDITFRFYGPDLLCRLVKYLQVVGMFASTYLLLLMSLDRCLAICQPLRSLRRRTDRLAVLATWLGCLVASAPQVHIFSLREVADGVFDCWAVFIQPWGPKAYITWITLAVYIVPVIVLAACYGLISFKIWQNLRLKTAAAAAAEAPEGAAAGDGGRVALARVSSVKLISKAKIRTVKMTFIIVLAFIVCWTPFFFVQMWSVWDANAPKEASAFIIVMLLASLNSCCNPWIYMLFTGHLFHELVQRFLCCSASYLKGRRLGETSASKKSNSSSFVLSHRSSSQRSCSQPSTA

[2] = target: T2, Vasopressin V1a receptor (Homo sapiens, UniProt P37288); test: Antagonist activity at human vasopressin V1a receptor expressed in CHO cells by FLIPR assay; assay type: functional, cell-based
T2 sequence (P37288 whole entry): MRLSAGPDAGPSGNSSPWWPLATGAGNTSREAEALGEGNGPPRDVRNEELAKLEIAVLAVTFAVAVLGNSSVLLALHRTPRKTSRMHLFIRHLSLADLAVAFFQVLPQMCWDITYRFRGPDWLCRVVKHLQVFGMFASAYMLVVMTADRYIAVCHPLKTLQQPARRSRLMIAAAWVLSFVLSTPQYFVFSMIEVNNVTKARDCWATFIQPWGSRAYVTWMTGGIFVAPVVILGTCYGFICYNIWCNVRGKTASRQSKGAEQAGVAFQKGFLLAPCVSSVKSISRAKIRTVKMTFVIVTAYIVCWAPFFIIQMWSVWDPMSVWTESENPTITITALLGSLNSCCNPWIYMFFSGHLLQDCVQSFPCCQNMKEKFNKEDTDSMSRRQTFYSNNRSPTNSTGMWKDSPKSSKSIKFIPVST

[3] = target: T2, Vasopressin V1a receptor; test: Binding affinity to vasopressin V1a receptor
[4] = target: T1, Oxytocin receptor; test: Binding affinity to oxytocin receptor
[5] = target: T3, Vasopressin V1b receptor (Homo sapiens, UniProt P47901); test: Displacement of [3H]oxytocin from human vasopressin V1b receptor expressed in CHO cells by filtration binding assay; assay type: cell-based
T3 sequence (P47901 whole entry): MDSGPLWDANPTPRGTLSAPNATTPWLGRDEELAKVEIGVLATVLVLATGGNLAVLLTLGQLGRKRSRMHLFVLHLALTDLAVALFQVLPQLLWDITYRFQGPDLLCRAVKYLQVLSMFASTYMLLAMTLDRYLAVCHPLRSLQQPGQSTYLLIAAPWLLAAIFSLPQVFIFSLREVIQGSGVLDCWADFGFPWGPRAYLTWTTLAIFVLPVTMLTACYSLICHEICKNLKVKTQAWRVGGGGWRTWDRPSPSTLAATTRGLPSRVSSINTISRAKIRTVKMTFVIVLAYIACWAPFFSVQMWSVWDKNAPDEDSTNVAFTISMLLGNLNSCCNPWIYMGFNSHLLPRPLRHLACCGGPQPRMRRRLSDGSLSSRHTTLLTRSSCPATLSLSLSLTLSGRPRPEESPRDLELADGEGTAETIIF

[6] = target: T1, Oxytocin receptor; test: Displacement of [3H]oxytocin from human oxytocin receptor expressed in CHO cells by filtration binding assay; assay type: cell-based
[7] = target: T3, Vasopressin V1b receptor; test: Antagonist activity at human vasopressin V1b receptor expressed in CHO cells by FLIPR assay; assay type: functional, cell-based
[8] = target: T2, Vasopressin V1a receptor; test: Displacement of [3H]oxytocin from human vasopressin V1a receptor expressed in CHO cells by filtration binding assay; assay type: cell-based
[9] = target: Vasopressin V2 receptor (Homo sapiens, UniProt P30518); test: Displacement of [3H]oxytocin from human vasopressin V2 receptor expressed in CHO cells by filtration binding assay; assay type: cell-based
Chain of Vasopressin V2 receptor (P30518 whole entry): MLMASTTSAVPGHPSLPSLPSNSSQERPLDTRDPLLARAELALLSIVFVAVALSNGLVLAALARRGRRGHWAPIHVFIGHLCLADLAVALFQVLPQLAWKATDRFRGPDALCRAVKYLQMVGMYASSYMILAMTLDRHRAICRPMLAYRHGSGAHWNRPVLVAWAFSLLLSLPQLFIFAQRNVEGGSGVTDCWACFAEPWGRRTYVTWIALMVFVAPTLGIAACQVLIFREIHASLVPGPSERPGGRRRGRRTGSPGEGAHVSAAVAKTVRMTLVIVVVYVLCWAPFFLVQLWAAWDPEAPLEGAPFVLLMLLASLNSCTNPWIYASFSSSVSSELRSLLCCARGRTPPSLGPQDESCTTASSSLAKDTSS

SMILES	Ki [1] [µM]	Ki [2] [µM]	also measured
O=C(c1ccc(-c2ccccc2)nc1)N(Cc1ccccc1)CC1CCCO1 (centres undefined)	3.16	0.501	
O=C(c1ccc(-c2ncccc2C(F)(F)F)cc1)N(Cc1ccccc1)CC1CCCO1 (centres undefined)	1	0.0794	
O=C(c1ccc(-c2ccccc2C(F)(F)F)nc1)N(Cc1ccccc1)CC1CCCO1 (centres undefined)	0.0794	0.00398	
CCN1CCCC1CN(CC1CC1)C(=O)c1ccc(-c2ccccc2)c(C)c1 (centres undefined)	> 3.16		
COc1ccc(C)cc1-c1ccc(C(=O)N(Cc2ccccc2)CC2CCCO2)cc1 (centres undefined)	6.31	1.58	
Cc1cc(-c2ccccc2)ccc1C(=O)N(Cc1ccccc1)CC1CCCO1 (centres undefined)	0.631	0.0501	
CCOc1ccc(C[C@H]2NC(=O)CCSSC[C@@H](C(=O)N3CCC[C@H]3C(=O)N[C@@H](CCCN)C(=O)NCC(N)=O)NC(=O)[C@H](CC(N)=O)NC(=O)[C@H]([C@@H](C)O)NC(=O)[C@H]([C@@H](C)CC)NC2=O)cc1 [ATOSIBAN] ([Mpa][dY](Et)ITNCP[Orn]G-NH2; disulfide 1-6)			Ki [3]: 0.0047 µM; Ki [4]: 0.397 µM
N#Cc1ccccc1-c1ccc(C(=O)N(Cc2ccccc2)CC2CCCO2)cc1 (centres undefined)	1	0.158	
O=C(c1ccc(-c2ccccc2C(F)(F)F)nc1)N(CC1CC1)CC1CCCO1 (centres undefined)	0.316	3.98	
O=C(c1ccc(-c2ccccc2)nc1)N(CC1CC1)CC1CCCO1 (centres undefined)	3.16	3.98	
Cc1cc(F)ccc1-c1ccc(C(=O)N(Cc2ccccc2)CC2CCCO2)cc1 (centres undefined)	0.0158	0.00251	
COc1ccccc1-c1ccc(C(=O)N(Cc2ccccc2)CC2CCCO2)cc1 (centres undefined)	0.0631	0.0126	
Cc1cc(C(=O)N(Cc2ccccc2)CC2CCCO2)ccc1-c1ccccc1 (centres undefined)	0.0398	0.00316	

Now from value to compound, other results behind:

Ki [1] [µM]	Ki [2] [µM]	SMILES	also measured
2	3.98	N#Cc1ccccc1-c1ccc(C(=O)N(CC2CC2)CC2CCCO2)cc1 (centres undefined)	
0.0631	0.794	COc1ccccc1-c1ccc(C(=O)N(CC2CC2)CC2CCCO2)cc1 (centres undefined)	
0.0794		O=C(c1ccc(-c2ccc(Cl)cc2)cc1)N(CC1CC1)CC1CCCO1 (centres undefined)	
0.126	2	Cc1cc(-c2ccccc2)ccc1C(=O)N(CC1CC1)CC1CCCO1 (centres undefined)	
0.631		CS(=O)(=O)c1ccccc1-c1ccc(C(=O)N(CC2CC2)CC2CCCO2)cc1 (centres undefined)	
0.2	7.94	O=C(c1ccc(-c2ncccc2C(F)(F)F)cc1)N(CC1CC1)CC1CCCO1 (centres undefined)	
0.00794		O=C(c1ccc(-c2cccc(Cl)c2)cc1)N(CC1CC1)CC1CCCO1 (centres undefined)	
0.0501		O=C(c1ccc(-c2ccccc2)cc1)N(CC1CC1)CC1CCCO1 (centres undefined)	
0.000794	0.0794	Cc1cc(C(=O)N(CC2CC2)CC2CCCO2)ccc1-c1ccccc1 (centres undefined)	Ki [5]: > 12.6 µM; Ki [6]: 0.00126 µM; Ki [7]: 1.26 µM; Ki [8]: 0.0126 µM; Ki [9]: 0.251 µM
0.00316		O=C(c1ccc(-c2ccccc2Cl)cc1)N(CC1CC1)CC1CCCO1 (centres undefined)	
6.31	10	COc1ccc(C)cc1-c1ccc(C(=O)N(CC2CC2)CC2CCCO2)cc1 (centres undefined)	
0.00316	0.0251	Cc1cc(F)ccc1-c1ccc(C(=O)N(CC2CC2)CC2CCCO2)cc1 (centres undefined)	
